# Assay results from PMC7236970 (Clinical Epigenetics, 2020).
# Tests used:
# Acetyl α-tubulin = assay: Western blot of α-tubulin acetylation in K-562 cells; type: cell-based, human; conditions: for effect on α-tubulin acetylation (in words): increasing concentrations
# Method: (§1) Cells were lyzed in 10% (v/v) Mammalian Protein Extraction Reagent solution (MPER®; Thermofisher, Erembodegen, Belgium) supplemented with 1× protease inhibitor cocktail (Complete EDTA-free, Roche) according to the manufacturer’s instructions. Histone enrichment was performed in acidic conditions as previously described. The protein concentration was determined using the Bradford assay (BioRad).
# Acetyl histone H4 = assay: Western blot of histone H4 acetylation in K-562 cells; type: cell-based, human; conditions: for effect on histone H4 acetylation (in words): increasing concentrations
# Method: as §1
# K-562 cells [1] = assay: Cell proliferation and viability, Trypan Blue exclusion; type: cell-based, human; conditions: for concentration from which cell death was triggered / cell viability decreased / concentration from which cell proliferation was reduced: K-562, 48 h
# Method: (§4) Cell viability and proliferation were evaluated using the Trypan Blue exclusion method (BioWhittaker ®). Cells were processed using a semi-automated image-based cell analyzer (Cedex XS Innovatis, Roche, Luxembourg, Luxembourg), which provided the cell number as well as cell viability based on the fraction of trypan blue-positive cells.
# total HDAC = assay: In vitro HDAC activity assay, total HDAC; type: biochemical; conditions: for IC50: read-out: IC50 values against total HDAC activity; for total HDAC activity remaining: 2 μM SAHA or 0.1 μM MAKV-8
# Method: (§2) In vitro HDAC activities were measured as previously described. IC50 values against the various HDAC activities were determined using nonlinear regression in Prism 8.0 software (GraphPad Software, Inc., La Jolla, CA, USA).
# K-562 cells [2] = assay: Cellular ALDH activity (ALDEFLUOR), ALDH+ LSC fraction; type: cell-based, human; conditions: K-562, 24 h; for ALDH+ cell percentage: untreated cells 50%
# Method: Cellular ALDH activity was assessed using the ALDEFLUOR^TM kit (StemCell Technologies Inc.) according to the manufacturer’s procedure. Diethylaminobenzaldehyde, a specific inhibitor of ALDH activity, was used to differentiate cells with low or high ALDH activity.
# PBMCs [3] = test system: PBMCs
# Method: (§5) PBMCs were isolated from the blood of healthy adult human donors obtained from the Red Cross (Luxembourg, Luxembourg) and purified as previously reported [43].
# as §4
# [4] = test system: K-562 cells xenografted in zebrafish; assay: Zebrafish cancer cell xenograft; type: in vivo; conditions: K-562 cells treated 24 h, injected into zebrafish yolk sac, three days post-injection
# Method: Cancer xenograft assays in zebrafish were performed as previously described using cells stained with 2 μM CM-Dil (Invitrogen) and diluted in 1× PBS supplemented with 1% phenol red sodium salt solution.
# HDAC6 = test system: HDAC6; parameters: method as in PMID 18642892; conditions: in vitro; read-out: IC50 towards HDAC6; cited from earlier work
# MEG-01 cells [5] = assay: Cell proliferation and viability, Trypan Blue exclusion; type: cell-based, human
# Method: as §4
# recombinant HDAC6 = target: T1, recombinant HDAC6 (Homo sapiens, UniProt Q9UBN7); assay: In vitro HDAC activity assay, recombinant HDAC6; type: biochemical; conditions: read-out: IC50 recombinant HDAC6 deacetylase activity
# T1 sequence (Q9UBN7 1-1215): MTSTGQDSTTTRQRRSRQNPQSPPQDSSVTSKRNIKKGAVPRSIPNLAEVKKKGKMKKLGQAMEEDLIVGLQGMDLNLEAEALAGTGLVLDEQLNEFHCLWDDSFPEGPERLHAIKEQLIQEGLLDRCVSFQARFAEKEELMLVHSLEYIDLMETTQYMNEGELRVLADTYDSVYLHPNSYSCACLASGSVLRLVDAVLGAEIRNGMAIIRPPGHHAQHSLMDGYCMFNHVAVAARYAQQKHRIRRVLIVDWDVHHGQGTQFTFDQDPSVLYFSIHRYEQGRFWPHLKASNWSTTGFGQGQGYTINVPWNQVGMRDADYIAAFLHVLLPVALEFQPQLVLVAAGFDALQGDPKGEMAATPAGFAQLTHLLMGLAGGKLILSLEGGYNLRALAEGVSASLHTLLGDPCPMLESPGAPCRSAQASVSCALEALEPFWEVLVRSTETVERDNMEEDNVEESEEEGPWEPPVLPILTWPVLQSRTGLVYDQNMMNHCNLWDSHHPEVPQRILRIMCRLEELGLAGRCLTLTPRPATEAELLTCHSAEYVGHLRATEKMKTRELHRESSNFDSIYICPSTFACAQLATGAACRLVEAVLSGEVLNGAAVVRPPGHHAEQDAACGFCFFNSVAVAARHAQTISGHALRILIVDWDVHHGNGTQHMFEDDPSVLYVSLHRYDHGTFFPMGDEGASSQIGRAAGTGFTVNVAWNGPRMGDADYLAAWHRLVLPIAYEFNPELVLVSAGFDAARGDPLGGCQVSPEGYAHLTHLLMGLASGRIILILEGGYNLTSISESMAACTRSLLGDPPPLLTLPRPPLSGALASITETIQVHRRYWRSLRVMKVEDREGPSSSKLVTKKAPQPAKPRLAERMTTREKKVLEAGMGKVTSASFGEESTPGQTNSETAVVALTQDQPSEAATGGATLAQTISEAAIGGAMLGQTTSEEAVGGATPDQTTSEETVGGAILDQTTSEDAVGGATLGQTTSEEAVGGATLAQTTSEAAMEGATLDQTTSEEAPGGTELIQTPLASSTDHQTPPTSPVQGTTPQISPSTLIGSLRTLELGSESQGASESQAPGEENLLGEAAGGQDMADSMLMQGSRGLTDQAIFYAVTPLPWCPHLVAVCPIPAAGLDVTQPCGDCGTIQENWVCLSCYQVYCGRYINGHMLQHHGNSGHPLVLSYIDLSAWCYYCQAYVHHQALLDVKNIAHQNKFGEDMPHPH
# Method: as §2
# PBMCs [6] = assay: Healthy cell viability, Trypan Blue exclusion; conditions: 48 h
# Method: as §5, §4
# KBM-5 cells [7] = assay: Cell proliferation and viability, Trypan Blue exclusion; type: cell-based, human
# Method: as §4
# recombinant HDAC1 = recombinant HDAC1 (Homo sapiens, UniProt Q13547); assay: In vitro HDAC activity assay, recombinant HDAC1; type: biochemical; conditions: read-out: IC50 recombinant HDAC1 deacetylase activity
# Method: as §2
# K-562 cells [8] = assay: Cyto-ID quantification of autophagic vesicles; type: cell-based, human; conditions: K-562, 8 h, Cyto-ID staining
# Method: For fluorescence microscopy, the Cyto-ID® Autophagy Detection Kit (Enzo Life Science) was used according to the manufacturer’s instructions. […] Green fluorescent autophagy-related organelles (pre-autophagosomes, autophagosomes, and autophagolysosomes) were quantified as green signal area per cell nucleus as advised by the manufacturer. Segmentation of these areas was based on 31 parameters assessing color, texture, and edge and was carried out in Ilastik, version 1.3.0 developed by the European Molecular Biology Laboratory, Heidelberg. Classifiers trained for these parameters on a set of representative images were then applied to batch process multiple images as described in Ilastik’s user manual. Binary masks thus obtained were measured in FIJI [59] after applying a size filter to remove small size artifacts resulting from segmentation.
# platelets = assay: Platelet viability, flow cytometry after Annexin V staining; type: cell-based, human; conditions: 48 h
# Method: Phosphatidylserine exposure was evaluated using the FITC Annexin V Apoptosis Detection Kit I (BD Biosciences) according to the supplier’s instructions. Stained samples were processed through a cytometer (FACS Calibur, BD Biosciences), and data were recorded statistically (10,000 events/sample) using the CellQuest Pro software (BD, Biosciences). Data were analyzed using the Flow-Jo 8.8.5 software.
# RPMI-1788 cells = assay: Healthy cell model viability, nuclear morphology; type: cell-based, human; conditions: RPMI-1788, 48 h, 10 μM MAKV-8
# From the text: PBMCs were isolated from the blood of healthy adult human donors obtained from the Red Cross (Luxembourg, Luxembourg) and purified as previously reported [43]. […] Platelets from healthy adult human donors were provided by the Red Cross.
# KBM-5 cells [9] = assay: Colony formation assay in methylcellulose; type: cell-based, human; conditions: KBM-5, 10 days
# Method: (§3) For colony formation assays, 1000 cells were grown in 1 mL of semi-solid methylcellulose medium (Methocult H4230, StemCell Technologies Inc., Grenoble, France) supplemented with 10% heat-inactivated FCS (BioWhittaker ®) in 12-well plates. Colonies were detected after 10 days of culturing by adding 5 mg/mL 3-(4,5-dimethylthiazol-2-yl)-2,5-diphenyltetrazoliumbromide (MTT) reagent (Sigma-Aldrich) and incubating for 15 min at 37 °C. Pictures were taken with the GelDoc XR+ System (BioRad, Temse, Belgium), and quantifications were conducted using Image J software (US National Institute of Health, Bethesda, MD, USA).
# K-562 cells [10] = assay: Colony formation assay in methylcellulose; type: cell-based, human; conditions: K-562, 10 days
# Method: as §3
# MEG-01 cells [11] = assay: Colony formation assay in methylcellulose; type: cell-based, human; conditions: MEG-01, 10 days
# Method: as §3
# HDAC3 = test system: HDAC3; parameters: method as in PMID 18642892; conditions: in vitro; read-out: IC50 towards HDAC3; cited from earlier work
# Sequence of recombinant HDAC1 (Q13547 whole entry): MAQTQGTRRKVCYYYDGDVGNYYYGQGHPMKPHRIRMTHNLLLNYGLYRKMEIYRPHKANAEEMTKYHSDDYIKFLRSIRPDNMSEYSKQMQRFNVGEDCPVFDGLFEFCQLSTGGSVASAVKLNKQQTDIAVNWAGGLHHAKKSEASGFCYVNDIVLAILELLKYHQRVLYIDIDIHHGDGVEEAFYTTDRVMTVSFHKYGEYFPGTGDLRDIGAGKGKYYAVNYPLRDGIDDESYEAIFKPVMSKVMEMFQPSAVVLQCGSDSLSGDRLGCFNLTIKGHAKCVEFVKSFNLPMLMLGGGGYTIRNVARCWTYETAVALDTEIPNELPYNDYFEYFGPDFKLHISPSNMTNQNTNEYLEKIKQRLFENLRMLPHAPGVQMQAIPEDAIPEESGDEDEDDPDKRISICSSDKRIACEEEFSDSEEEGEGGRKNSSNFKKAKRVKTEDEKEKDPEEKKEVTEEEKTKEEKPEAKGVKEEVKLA
compound,measurement,setting,value
COC(=O)CCCCCCNC(=O)c1cc(-c2cccc(N)c2)on1 [MAKV-12],effect on α-tubulin acetylation (in words),Acetyl α-tubulin; 24 h,did not augment protein target acetylation levels
same,effect on histone H4 acetylation (in words),Acetyl histone H4; 24 h,did not augment protein target acetylation levels
same,effect on cell proliferation and viability (in words),"K-562 cells [1]; K-562, up to 72 h",neither MAKV-10 nor MAKV-12 impacted K-562 cell proliferation and viability
same,concentration up to which HDAC activities were not inhibited,total HDAC; in vitro,> 100 µM
same,IC50,total HDAC; in vitro,> 100000 nM
"O=C(CCCCCCC(=O)Nc1ccccc1)NO [SAHA, suberoylanilide hydroxamic acid, reference compound]",effect on ALDH+ cell proportion (in words),K-562 cells [2],failed to reduce the ALDH^+ cell proportion
same,total HDAC activity remaining,total HDAC,about 10%
Cc1ccc(NC(=O)c2ccc(CN3CCN(C)CC3)cc2)cc1Nc1nccc(-c2cccnc2)n1 [imatinib],cell mortality (in words),PBMCs [3],failed to trigger any cell mortality
same,ALDH+ cell percentage,K-562 cells [2],30%
CC(C)(C)OC(=O)Nc1ccc(-c2cc(C(=O)NO)no2)cc1 [MAKV-7],effect on α-tubulin acetylation (in words),Acetyl α-tubulin; 24 h,failed to increase α-tubulin acetylation
same,effect on histone H4 acetylation (in words),Acetyl histone H4; 24 h,increased histone H4 acetylation only at the highest concentrations
same,concentration from which cell death was triggered / cell viability decreased,K-562 cells [1],≥ 25 µM
same,concentration from which cell proliferation was reduced,K-562 cells [1],≥ 10 µM
same,IC50 values against total HDAC activities (in words),total HDAC; in vitro,low micromolar range
same,IC50,total HDAC; in vitro,22000 nM
CC(C)(C)OC(=O)Nc1cccc(-c2cc(C(=O)NCCCCCCC(=O)NO)no2)c1 [MAKV-8],tumor formation / tumor volume (in words),[4],unable to significantly reduce tumor volumes
same,IC50,HDAC6,0.002 nM
same,concentration from which cell death was triggered,"MEG-01 cells [5]; MEG-01, 48 h",≥ 10 µM
same,concentration from which cell growth was inhibited,"MEG-01 cells [5]; MEG-01, up to 72 h",about 3 μM
same,IC50,recombinant HDAC6,11.4 nM
same,time at which increase in α-tubulin acetylation begins,Acetyl α-tubulin; 15 µM MAKV-8,≥ 2 h
same,concentration from which α-tubulin acetylation was induced,Acetyl α-tubulin; 24 h,≥ 5 µM
same,EC50,"Acetyl α-tubulin; Homo sapiens, K562, 24 h, western blot quantification, read-out: EC50 half-maximal acetylation of α-tubulin",12100 ± 900 nM
same,maximum decrease of viable cells,PBMCs [6],≤ 30%
same,concentration from which cell death was triggered,"KBM-5 cells [7]; KBM-5, 48 h",≥ 10 µM
same,concentration from which cell growth was inhibited,"KBM-5 cells [7]; KBM-5, up to 72 h",about 3 μM
same,ALDH+ cell percentage,K-562 cells [2],24%
same,time at which increase in histone H4 acetylation begins,Acetyl histone H4; 15 µM MAKV-8,≥ 2 h
same,concentration from which histone H4 acetylation was induced,Acetyl histone H4; 24 h,≥ 1 µM
same,EC50,"Acetyl histone H4; Homo sapiens, K562, 24 h, western blot quantification, read-out: EC50 half-maximal acetylation of histone H4",5900 ± 1400 nM
same,IC50,recombinant HDAC1,2.6 nM
same,autophagic signal area per nucleus compared to controls,K-562 cells [8],about 1.5 times
same,cytotoxicity in platelets (in words),platelets,neither alone nor in co-treatments elicited any significant cytotoxicity in platelets
same,reduction of living cells,RPMI-1788 cells,about 55%
same,concentration from which cell death was triggered / cell viability decreased,K-562 cells [1],≥ 10 µM
same,concentration from which cell growth was inhibited,"K-562 cells [1]; K-562, up to 72 h",about 3 μM
same,"concentration from which colony formation (replicative ability, 3D model) was strongly reduced",KBM-5 cells [9],≥ 10 µM
same,"concentration from which colony formation (replicative ability, 3D model) was strongly reduced",K-562 cells [10],≥ 5 µM
same,"concentration from which colony formation (replicative ability, 3D model) was strongly reduced",MEG-01 cells [11],≥ 5 µM
same,total HDAC activity remaining,total HDAC,about 10%
same,potency as pan-HDACi relative to SAHA,total HDAC; in vitro,10 times
same,IC50,total HDAC; in vitro,5.8 ± 3.8 nM
same,IC50,HDAC3,0.002 nM
COC(=O)CCCCCCNC(=O)c1cc(-c2cccc(NC(=O)OC(C)(C)C)c2)on1 [MAKV-10],effect on α-tubulin acetylation (in words),Acetyl α-tubulin; 24 h,did not augment protein target acetylation levels
same,effect on histone H4 acetylation (in words),Acetyl histone H4; 24 h,did not augment protein target acetylation levels
same,effect on cell proliferation and viability (in words),"K-562 cells [1]; K-562, up to 72 h",neither MAKV-10 nor MAKV-12 impacted K-562 cell proliferation and viability
same,concentration up to which HDAC activities were not inhibited,total HDAC; in vitro,> 100 µM
same,IC50,total HDAC; in vitro,> 100000 nM
CC(C)(C)OC(=O)Nc1cccc(-c2cc(C(=O)NO)no2)c1 [MAKV-6],effect on α-tubulin acetylation (in words),Acetyl α-tubulin; 24 h,failed to increase α-tubulin acetylation
same,effect on histone H4 acetylation (in words),Acetyl histone H4; 24 h,increased histone H4 acetylation only at the highest concentrations
same,concentration from which cell death was triggered / cell viability decreased,K-562 cells [1],≥ 25 µM
same,concentration from which cell proliferation was reduced,K-562 cells [1],≥ 5 µM
same,IC50 values against total HDAC activities (in words),total HDAC; in vitro,low micromolar range
same,IC50,total HDAC; in vitro,1050 ± 220 nM
